This is an account of results in patent US20230406803A1, “TROPOLONE DERIVATIVES AND TAUTOMERS THEREOF FOR IRON REGULATION IN ANIMALS” (Kinesid Therapeutics, Inc, priority 2020, published 2023).

Data set [1] can be described thus: Human liver microsomal stability assay. To be noted: human, microsomes. The data set is classed as in vitro ADME. From the text:
(§1) Further examples of useful assays include metabolic stability assays, such as but not limited to e.g., liver microsomal clearance assays which provide measurement such as, but not limited to e.g., liver microsomal clearance half-life (t1/2), liver microsomal intrinsic clearance (CLint), and the like. Such measurements are useful in assessing various characteristics of a subject compound, such as e.g., the availability of an intact compound to provide a pharmacological effect. A compound having a longer microsomal clearance half-life (t1/2), e.g., than a reference compound, will provide better exposure of the intact compound and greater availability to produce the relevant pharmacological effect. A compound having a less microsomal clearance, e.g., as measured by liver microsomal intrinsic clearance (CLint), will similarly result in greater exposure of the intact compound available for an increase in the relevant pharmacological effect, e.g., as compared to that of a reference compound with a higher liver microsomal intrinsic clearance (CLint). Other useful assays include in vitro hepatocyte metabolic stability assays.
(§2) Such assessments included human and mouse liver microsomal stability assays as well as 6-hour mouse PK studies.

Data set [2] is described as follows: Mouse liver microsomal stability assay. The data set is classed as in vitro ADME. Particulars: mouse, microsomes.
Description: as §1, §2

The next data set in a line: Mouse 6-hour PK study. Particulars: mouse, in vivo.
Description: Useful such assays include, but are not limited to e.g., those measurements made in PK studies, such as rodent and non-human primate PK studies, including e.g., mouse (such as mouse 6-hour PK studies), rat PK studies, cynomolgus or rhesus PK studies, or the like. Useful measurements obtained in such PK studies include but are not limited to e.g., maximum concentration (Cmax) reflecting the “peak” of a drug observed after its administration that can reflect not only the rate but also the extent of absorption, area under the curve (AUC) representing the area under the plot of tissue (e.g., plasma) concentration against time after drug administration which is of particular use in estimating bioavailability of drugs and drug total clearance, half-life (t1/2) or the period of time required for the concentration or amount of drug to be reduced to exactly one-half of a given concentration or amount that indicates the persistence of the drug in its volume of distribution, and the like.
as §2

The nature of data set [3]: Ligand facilitated Fe(III) efflux from liposomes. The data set is classed as biochemical. Set-up: unit not given here. To be noted: efflux rate k at 10 μM ligand concentration; ferrozine absorbance 562 nm, 120 min kinetic read. The method, boiled down: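 POPC/cholesterol liposomes loaded with Fe(III) citrate in MES/Tris pH 7.0, diluted to 1 mM phosphorus in ascorbate buffer with 1 mM ferrozine outside. Ligand at 1.25–40 µM; absorbance at 562 nm read every 60 s for 120 min. Efflux rate k fitted by single-phase association, averaged over triplicates, compared at 10 µM.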

The subject of data set [4] is DMT1-deficient Caco-2 cells. Put plainly: shDMT1-Caco2 55Fe transport assay. To be noted: Caco-2. The data set is classed as cell-based. From the text:
Assay 2: shDMT1-Caco2 ^55Fe Transport Assay to Assess Ligand Ability in Transporting Fe (III)
Cells: DMT1-deficient Caco-2 cells (alias: “shDMT1,” or “4A” cells) were from Grillo et al. Science, 2017, and were cryopreserved in liquid nitrogen prior to use.
Reagents and supplies: ^55FeCl3 was obtained from PerkinElmer (Boston, MA). Iron(III) chloride (FeCl3) hexahydrate was obtained from Sigma. Dulbecco's Modified Eagle Medium (DMEM), fetal bovine serum (FBS), L-glutamine, MEM nonessential amino acids, penicillin-streptomycin, G418, formic acid, methanol, high-purity water, ammonium formate, dimethyl sulfoxide (DMSO) were purchased from Fisher Scientific. Propranolol, atenolol and carbutamide were obtained from Sigma-Aldrich Chemical Company (St Louis, MO). Scintillation cocktail was obtained from Research Product International Co. (Mount Prospect, IL). Stericup filter system (PES membrane, 0.22 um pore size) was purchased from Fisher Scientific. Corning item #3378 24-well transwell insert plates.
Test articles: known compounds hinokitiol and deferiprone were purchased from Sigma. They are tested side by side with the small molecule ligands disclosed in this application. DMSO stocks (10 mM, which is 1,000× of the 10 μM dose level) of hinokitiol or test articles were prepared. A stock solution of 25 mM deferiprone in DMSO was prepared. The DMSO stock solutions were stored at −20° C. or below when not in use.
The growth medium was prepared according to the following table
Apical media (serum free DMEM, 10 mM MES, pH 6.5) was prepared. Apical master mix media was prepared fresh with the addition of 200 nM ^55Fe before each experiment. For the negative control propranolol and atenolol wells, 200 nM of non-radioactive iron was used.
The basolateral media was serum-free DMEM, 10 mM HEPES, 2% bovine serum albumin (BSA), pH 7.4.
For each experiment, cells were seeded into the 24-well transwell plates (0.5 mL of 50,000 cells/mL) with growth media. The basolateral companion plate was loaded with 1 mL of growth media. After 12-24 hr, both the apical and basolateral chamber were replaced with growth media. The apical media was changed 3× per week for 21-28 days, including a media change exactly 48 hr before the assay date.
On the assay day, the TEER values were measured and the average TEER value was obtained. Individual wells with TEER value >35% lower than the average of all wells were excluded. For the qualified wells, the apical layer (twice) and basolaterial (once) chambers were washed with PBS. The basolateral companion plate was then filled with 1 mL of basolateral media. Via addition down the side-wall of the apical well, 300 μL per well of the apical assay master mix, with the indicated dose level of test article, was added. Each dose was tested in triplicate. The plates were incubated (5% CO2 and 90% humidity at 37° C.) for the indicated timepoints. At each indicated timepoint, the basolateral supernatant was gently mixed via pipetting, and 200 μL of the basolateral supernatant was transferred to scintillation vials. To each scintillation counting vial, 5 mL of scintillation cocktail fluid was added. For each scintillation vial, the radioactivity (CPM) was determined with liquid scintillation counter LS6500. The counting time per vial was 5 min.
All raw CPM values are divided by the average value of blank DMSO solution to give a fold of change above the DMSO value. The mean and standard deviation of each compound at each concentration level and at each time point measured was calculated to give the fold change (fc) value. For rank order compounds, the fc value of a ligand at 4 h time point is further divided by the fold change (fc) value of hinokitiol (a positive control compound) at an equimolar concentration to arrive at the FC (normalized fold of change) value. Data reported in Tables 1 and 2 is 4 hr time point FC=fc-ligand @ 3 uM/fc-hino @ 3 μM, and FC hino=1.

For the molecule `CC(C)c1cccc(F)c(=O)c1O` [Ex. 4, 7-fluoro-2-hydroxy-3-isopropylcyclohepta-2,4,6-trien-1-one], in data set [1], the “clearance half-life (t1/2) and intrinsic clearance (CLint) as compared to hinokitiol” value (from here on “clearance half-life … compared to hinokitiol”) is “longer clearance half-life (t1/2) and lower intrinsic clearance (CLint), or both as compared to hinokitiol”; the half-life lay in the range of 0.417 to 0.833 h; the intrinsic clearance (microsomal CLint) is over 50 µL/min/mg. Besides, in data set [2], the “clearance half-life … compared to hinokitiol” value was “longer clearance half-life (t1/2) and lower intrinsic clearance (CLint), or both as compared to hinokitiol”; the half-life is 0.417 to 0.833 h; the microsomal CLint was in the range of 25 to 50 µL/min/mg. Further, in the data set “Mouse 6-hour PK study”, the AUC(0-t) is over 20000 ng·h/mL, the highest concentration (Cmax) was in the range of 5000 to 20000 ng/mL, the half-life was in the range of 1.25 to 4.99 h and the “mouse 6-hour PK properties as compared to hinokitiol” value is given as “one or more improved mouse 6-hour PK properties as compared to hinokitiol”.
On to `O=c1ccccc([C@H]2CCCO2)c1O` (single isomer, unassigned) [Ex. 41], for which, in data set [1], the “clearance half-life … compared to hinokitiol” value was “longer clearance half-life (t1/2) and lower intrinsic clearance (CLint), or both as compared to hinokitiol”; the half-life is 0.417 to 0.833 h; the microsomal CLint lay within 25 to 50 µL/min/mg. Besides, in data set [2], the “clearance half-life … compared to hinokitiol” value is “longer clearance half-life (t1/2) and lower intrinsic clearance (CLint), or both as compared to hinokitiol”; the half-life is 0.417 to 0.833 h; the microsomal CLint was in the range of 25 to 50 µL/min/mg. Further, in the data set “Mouse 6-hour PK study”, the AUC(0-t) lay in the range of 500 to 1500 ng·h/mL, the Cmax is 1500 to 5000 ng/mL, the half-life is under 1.25 h and the “mouse 6-hour PK properties as compared to hinokitiol” value is “one or more improved mouse 6-hour PK properties as compared to hinokitiol”.
On to `O=c1ccccc(OC2CCC2)c1O` [Ex. 56, 3-cyclobutoxy-2-hydroxycyclohepta-2,4,6-trien-1-one], for which, in data set [1], the “clearance half-life … compared to hinokitiol” value was “longer clearance half-life (t1/2) and lower intrinsic clearance (CLint), or both as compared to hinokitiol”; the half-life lay in the range of 1.67 to 2.5 h; the microsomal CLint was under 25 µL/min/mg. In addition, in data set [2], the “clearance half-life … compared to hinokitiol” value was “longer clearance half-life (t1/2) and lower intrinsic clearance (CLint), or both as compared to hinokitiol”; the half-life fell in the range of 0.417 to 0.833 h; the microsomal CLint was 25 to 50 µL/min/mg. For the same molecule, in “Mouse 6-hour PK study”, the AUC(0-t) lay within 1500 to 5000 ng·h/mL, the Cmax was in the range of 1500 to 5000 ng/mL, the half-life was under 1.25 h and the “mouse 6-hour PK properties as compared to hinokitiol” value is “one or more improved mouse 6-hour PK properties as compared to hinokitiol”.
On to `CC(C)c1cccc(=O)c(O)c1F` [Ex. 2, 3-fluoro-2-hydroxy-4-isopropylcyclohepta-2,4,6-trien-1-one], for which, in data set [1], the “clearance half-life … compared to hinokitiol” value is “longer clearance half-life (t1/2) and lower intrinsic clearance (CLint), or both as compared to hinokitiol”; the half-life is over 2.5 h; the microsomal CLint is under 25 µL/min/mg. Also, in data set [2], the “clearance half-life … compared to hinokitiol” value is “longer clearance half-life (t1/2) and lower intrinsic clearance (CLint), or both as compared to hinokitiol”; the half-life is over 2.5 h; the microsomal CLint was under 25 µL/min/mg. For the same molecule, in the data set “Mouse 6-hour PK study”, the area under the curve AUC(0-t) was in the range of 5000 to 20000 ng·h/mL, the Cmax lay in the range of 5000 to 20000 ng/mL, the half-life was 1.25 to 4.99 h and the “mouse 6-hour PK properties as compared to hinokitiol” value is on record as “one or more improved mouse 6-hour PK properties as compared to hinokitiol”.
On to `CCOC(=O)N1CCC(c2ccc(O)c(=O)cc2)CC1`, for which, in data set [3], the “Liposome Fe transport kefflux at 10 μM” value was 5-7.5. The “Caco2 shDMT1 transport FC @ 3 μM, 4 h” value in data set [4] was 0.01-0.5.
For `CC(C)c1cccc(=O)c(O)c1F` [drawing 177] the same measures were 10-25 and 0.01-0.5.
Consider `CC(C)Oc1ccc(O)c(=O)cc1`, for which, in data set [3], the “Liposome Fe transport kefflux at 10 μM” value is recorded as 7.5-10. Besides, the “Caco2 shDMT1 transport FC @ 3 μM, 4 h” value in data set [4] is reported as 0.01-0.5.
For `CC(C)c1ccc(C(F)(F)F)c(=O)c(O)c1` the same measures were 5-7.5 and 0.01-0.5.
On the same counts, the results for `CCc1cc(F)ccc(=O)c1O` are 7.5-10 and 1-5.
For `Cc1cc(C2CC2)ccc(O)c1=O` the same measures were 0.1-5 and 1-5.
Regarding `CCc1cccc(C)c(=O)c1O` [drawing 202], the “Liposome Fe transport kefflux at 10 μM” value in data set [3] was 5-7.5. Besides, the “Caco2 shDMT1 transport FC @ 3 μM, 4 h” value in data set [4] is given as 0.01-0.5.
On the same counts, the results for `O=c1cccc(O[C@@H]2CCOC2)cc1O` (stereo in doubt) are 0.1-5 and 0.01-0.5.
On the same counts, the results for `O=c1ccc(OC2CC2)ccc1O` are 10-25 and 0.5-1.
On the same counts, the results for `O=c1cccc(C2CCOCC2)cc1O` are 10-25 and 0.01-0.5.
Regarding `Cc1c(O)c(=O)ccn1C` [deferiprone, reference compound], the “Liposome Fe transport kefflux at 10 μM” value in data set [3] worked out at 0. In data set [4], the “Caco2 shDMT1 transport FC @ 3 μM, 4 h” value is reported as 0.02-0.03.
For `Cc1ccc(F)c(=O)c([O-])c1.[Na+]` the same measures were 0.1-5 and 0.01-0.5.
Consider `O=c1ccccc(C2CCCCO2)c1O` (stereo not shown), for which, in data set [3], the “Liposome Fe transport kefflux at 10 μM” value is reported as 0.1-5. Besides, the “Caco2 shDMT1 transport FC @ 3 μM, 4 h” value in data set [4] is given as 1-5.
For `O=c1ccc(OC2CCC2)ccc1O` the same measures were 10-25 and 1-5.
On the same counts, the results for `Cc1ccc(C(C)C)cc(O)c1=O` are 0.1-5 and 0.5-1.
